In ChEMBL document CHEMBL1133806, “Synthesis and biological evaluation of novel bisindolylmaleimides that inhibit vascular endothelial cell proliferation” (Bioorg Med Chem Lett, 2001) one finds IC50 data, which are given here for 8 compounds.

Common to all, as to type: functional, cell-based
One assay has as its system HUVEC. As to the kind of experiment: Antiproliferative activity against human umbilical vein endothelial cells (HUVECs) using MTT assay. On the technique in general: Tetrazolium dyes change colour on reduction, which living cells bring about.
A further assay concerns DLD-1. As to the kind of experiment: Antiproliferative activity against human colon cancer cell line (DLD-1 cells) using MTT assay.
The test system of the next assay is LoVo. Description: Antiproliferative activity against human colon cancer cell line (LoVo cells) using MTT assay.
A short description of assay [1]: Antiproliferative activity against burkit lymphoma cell line (ST-486 cells) using MTT assay. The conditions noted are these: Homo sapiens.

Take `Cc1ccc(C(=O)Nc2ccc(S(=O)(=O)O)c3cc(S(=O)(=O)O)cc(S(=O)(=O)O)c23)cc1NC(=O)c1cccc(NC(=O)Nc2cccc(C(=O)Nc3cc(C(=O)Nc4ccc(S(=O)(=O)O)c5cc(S(=O)(=O)O)cc(S(=O)(=O)O)c45)ccc3C)c2)c1` [SURAMIN]: the IC50 (commonly the concentration that gives 50% inhibition) in the assay with HUVEC was determined as 500 µM.

As for `CN(C)CCN1C(=O)C(c2c[nH]c3ccccc23)=C(c2cn(CCOCCO)c3ccccc23)C1=O`, the IC50 in the assay on DLD-1 was determined as 40 µM; in the assay with LoVo, 7 µM; in assay [1], 10 µM; in the assay on HUVEC, 7 µM.

Take `O=C1NC(=O)C(c2cn(CCOCCO)c3ccccc23)=C1c1c[nH]c2ccccc12`: the IC50 is 6 µM in the assay on DLD-1, 20 µM in the assay with LoVo, 2 µM in assay [1] and 2 µM in the assay with HUVEC.

Regarding `CNCCOCCn1cc(C2=C(c3c[nH]c4ccccc34)C(=O)N(CCN(C)C)C2=O)c2ccccc21`, the IC50 in the assay with DLD-1 was more than 100 µM; with LoVo it was more than 100 µM; in assay [1], 20 µM; with HUVEC, 50 µM.

On to `CN[C@@H]1C[C@H]2O[C@@](C)([C@@H]1OC)n1c3ccccc3c3c4c(c5c6ccccc6n2c5c31)C(=O)NC4` [STAUROSPORINE], for which the IC50 with DLD-1 amounted to 0.009 µM; in assay [1], 0.007 µM; in the assay on HUVEC it was 0.004 µM.

As for `CN(C)CCN1C(=O)C(c2c[nH]c3ccccc23)=C(c2c[nH]c3ccccc23)C1=O`, the IC50 with DLD-1 was more than 100 µM; with LoVo, more than 100 µM; in assay [1], more than 100 µM; in the assay on HUVEC it was 30 µM.

With `CN(C)CCOCCn1cc(C2=C(c3c[nH]c4ccccc34)C(=O)NC2=O)c2ccccc21`, the half-maximal inhibitory concentration (IC50) is more than 100 µM with DLD-1, more than 100 µM with LoVo, 10 µM in assay [1] and 20 µM in the assay with HUVEC.

Regarding `CN(C)CCOCCn1cc(C2=C(c3c[nH]c4ccccc34)C(=O)N(CCN(C)C)C2=O)c2ccccc21`, the IC50 in the assay on DLD-1 is more than 100 µM; in the assay on LoVo, more than 100 µM; in assay [1], 30 µM; with HUVEC it was 25 µM.
